Measurements reported in ChEMBL document CHEMBL1649466, “High-throughput screening identifies novel inhibitors of the acetyltransferase activity of Escherichia coli GlmU” (Antimicrob Agents Chemother, 2009).

How the values were obtained:
[1] = target: Bifunctional protein GlmU (Escherichia coli (strain K12)) (UniProt P0ACC7); test: Uncompetitive inhibition of Acetyltransferase activity of Escherichia coli BL21(DE3) GlmU in presence of GlcN-1P
[2] = target: Bifunctional protein GlmU (Escherichia coli (strain K12)) (UniProt P0ACC7); test: Competitive inhibition of Acetyltransferase activity of Escherichia coli BL21(DE3) GlmU in presence of AcCoA
[3] = target: Bifunctional protein GlmU (Escherichia coli (strain K12)) (UniProt P0ACC7); test: Uncompetitive inhibition of Acetyltransferase activity of Escherichia coli BL21(DE3) GlmU in presence of AcCoA

Bifunctional protein GlmU (Escherichia coli (strain K12)), sequence (P0ACC7 whole entry, looked up): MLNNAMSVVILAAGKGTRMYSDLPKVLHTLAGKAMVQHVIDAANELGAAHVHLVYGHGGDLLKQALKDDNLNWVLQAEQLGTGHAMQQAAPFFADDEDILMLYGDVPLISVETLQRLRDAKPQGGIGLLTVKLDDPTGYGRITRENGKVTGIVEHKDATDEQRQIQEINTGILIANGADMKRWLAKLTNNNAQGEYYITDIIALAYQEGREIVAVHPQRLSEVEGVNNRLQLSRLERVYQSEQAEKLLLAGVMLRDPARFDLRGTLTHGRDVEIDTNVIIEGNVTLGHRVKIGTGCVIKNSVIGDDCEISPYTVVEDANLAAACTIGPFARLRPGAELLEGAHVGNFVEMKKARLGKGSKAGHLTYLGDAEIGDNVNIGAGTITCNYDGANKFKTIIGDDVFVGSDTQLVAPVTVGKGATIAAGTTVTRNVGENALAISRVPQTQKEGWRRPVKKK

Row | Kiuc [1] | Kic [2] [nM] | Kiuc [3] [nM] | Structure (SMILES)
1 | 189 nM | 17.2 | – | Nc1ccc(Nc2ccc(N)cc2S(=O)(=O)O)cc1
2 | – | 22.8 | 101 | O=C(CSc1nnc(SCC(=O)NCCSCc2ccco2)s1)NCCSCc1ccco1
3 | 1.11 ×10³ nM | 404 | – | O=S(=O)(Nc1ccc(S(=O)(=O)c2ccc(-c3ccc(S(=O)(=O)c4ccc(NS(=O)(=O)c5ccc(Cl)cc5)c(Cl)c4)cc3)cc2)cc1Cl)c1ccc(Cl)cc1
